# Assay results from the supplement of paper PMC10307832.
# How the values were obtained:
# Test in all cases: relative viability (nuclei count vs DMSO), 5 days (fraction); higher = more cells survive
# [1] = compound: C(C(=O)C(=O)O)Br [Bromopyruvate] + Cc1nc(Nc2ncc(C(=O)Nc3c(C)cccc3Cl)s2)cc(N2CCN(CCO)CC2)n1 [Dasatinib] (partner 0.075 µM)
# Method in brief: (§1)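 Each reported value is a median over duplicate plates. It expresses relative viability: treated-well nuclei count divided by vehicle-well nuclei count. Lung cancer cell lines in 1536-well plates were dosed by pin tool a day after seeding, alone with one drug or with a fixed anchor-drug dose plus five library-drug doses (not always all listed) in √10 steps, and nuclei were counted after 5 days.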
# Bicalutamide + Foretinib = compound: CC(O)(CS(=O)(=O)c1ccc(F)cc1)C(=O)Nc1ccc(C#N)c(C(F)(F)F)c1 [Bicalutamide] + COc1cc2c(Oc3ccc(NC(=O)C4(C(=O)Nc5ccc(F)cc5)CC4)cc3F)ccnc2cc1OCCCN1CCOCC1 [Foretinib] (partner 0.25 µM)
# Method in brief: as §1
# [2] = compound: CC(O)(CS(=O)(=O)c1ccc(F)cc1)C(=O)Nc1ccc(C#N)c(C(F)(F)F)c1 [Bicalutamide] + C[C@@H](Oc1cc(-c2cnn(C3CCNCC3)c2)cnc1N)c1c(Cl)ccc(F)c1Cl [Crizotinib] (partner 1 µM)
# Method in brief: as §1
# [3] = compound: C(C(=O)C(=O)O)Br [Bromopyruvate] + Cc1nc(NC(=O)N2CCC[C@H]2C(N)=O)sc1-c1ccnc(C(C)(C)C(F)(F)F)c1 [Alpelisib] (partner 2 µM)
# Method in brief: as §1
Cell Line,relative viability ([1]; first compound 1 µM),relative viability ([1]; first compound 3.162 µM),relative viability ([1]; first compound 10 µM),relative viability ([1]; first compound 31.62 µM),relative viability ([1]; first compound 100 µM),relative viability (Bicalutamide + Foretinib; first compound 0.08 µM),relative viability (Bicalutamide + Foretinib; first compound 0.253 µM),relative viability (Bicalutamide + Foretinib; first compound 0.8 µM),relative viability (Bicalutamide + Foretinib; first compound 2.53 µM),relative viability ([2]; first compound 0.08 µM),relative viability ([2]; first compound 0.253 µM),relative viability ([2]; first compound 0.8 µM),relative viability ([2]; first compound 2.53 µM),relative viability ([3]; first compound 1 µM),relative viability ([3]; first compound 3.162 µM),relative viability ([3]; first compound 10 µM),relative viability ([3]; first compound 31.62 µM),relative viability ([3]; first compound 100 µM)
NCI-H322M,0.253,0.258,0.248,0.235,0.259,1.01,0.851,1.16,1.06,1.05,0.858,1.16,0.868,0.804,0.73,0.843,0.779,0.798
NCI-H358,0.197,0.149,0.143,0.171,0.167,0.767,0.565,0.958,0.73,0.831,0.616,0.44,0.399,0.812,1.08,0.819,0.69,0.721
NCI-H441,0.64,0.618,0.693,0.677,0.486,1.19,0.894,0.964,0.787,0.917,–,0.598,0.61,0.835,1.01,0.714,0.658,0.547
NCI-H460,0.523,0.509,0.502,0.539,0.494,1,1,1.17,0.963,0.896,0.798,1.28,0.825,0.432,0.603,0.594,0.374,0.436
NCI-H520,0.216,0.222,0.154,0.251,0.241,0.856,0.708,0.773,0.621,0.836,0.681,0.93,0.577,0.844,1.08,0.884,0.896,0.875
NCI-H596,0.6,0.527,0.676,0.747,0.685,0.986,0.87,0.976,0.946,0.898,1.51,1.08,1.04,0.435,0.47,0.551,0.477,0.491
NCI-H647,0.156,0.218,0.215,0.187,0.169,1.08,1.16,1.23,1.14,1.11,1.23,1.56,0.777,1.12,1.15,1.46,1.48,1.2
NCI-H650,0.523,0.442,0.487,0.439,0.576,1.07,1.07,1.17,0.936,0.725,0.645,0.932,0.438,1.03,1.2,1.28,1.07,1.02
NCI-H661,0.785,1.02,0.929,0.943,1.05,1.02,1.04,1.04,0.958,1.14,–,0.881,0.989,0.693,0.628,0.601,0.588,0.657
